Data published in paper PMC3726668, “A Characterization of the Manduca sexta Serotonin Receptors in the Context of Olfactory Neuromodulation” (PLoS ONE, 2013).

Tests used:
Assay type in all cases: cell-based
Ms5HT1B receptor [1] = target: T1, Ms5HT1B receptor (Manduca sexta, UniProt Q0GMY1); test: two-electrode voltage clamp, Xenopus oocytes, endogenous calcium-dependent chloride current
T1 construct: gene 5HT1B
T1 sequence (Q0GMY1 1-448): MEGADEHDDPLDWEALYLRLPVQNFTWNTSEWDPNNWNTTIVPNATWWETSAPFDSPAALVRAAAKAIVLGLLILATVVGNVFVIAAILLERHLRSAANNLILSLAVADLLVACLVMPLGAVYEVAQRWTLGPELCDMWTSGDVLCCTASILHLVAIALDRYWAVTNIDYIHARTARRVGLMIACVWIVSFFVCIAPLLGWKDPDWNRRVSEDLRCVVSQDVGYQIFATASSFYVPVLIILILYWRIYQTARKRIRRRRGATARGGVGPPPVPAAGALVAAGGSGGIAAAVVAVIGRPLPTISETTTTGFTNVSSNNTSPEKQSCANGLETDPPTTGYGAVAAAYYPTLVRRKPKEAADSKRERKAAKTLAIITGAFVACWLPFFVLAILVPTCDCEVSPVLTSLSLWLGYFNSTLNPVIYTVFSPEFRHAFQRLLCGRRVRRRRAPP

Ms5HT7 receptor [2] = target: T2, Ms5HT7 receptor (Manduca sexta, UniProt S4UQW2); test: as above
T2 construct: gene 5HT7; Xenopus oocytes (pBS-MXT, receptor cRNA alone)
T2 sequence (S4UQW2 38-563): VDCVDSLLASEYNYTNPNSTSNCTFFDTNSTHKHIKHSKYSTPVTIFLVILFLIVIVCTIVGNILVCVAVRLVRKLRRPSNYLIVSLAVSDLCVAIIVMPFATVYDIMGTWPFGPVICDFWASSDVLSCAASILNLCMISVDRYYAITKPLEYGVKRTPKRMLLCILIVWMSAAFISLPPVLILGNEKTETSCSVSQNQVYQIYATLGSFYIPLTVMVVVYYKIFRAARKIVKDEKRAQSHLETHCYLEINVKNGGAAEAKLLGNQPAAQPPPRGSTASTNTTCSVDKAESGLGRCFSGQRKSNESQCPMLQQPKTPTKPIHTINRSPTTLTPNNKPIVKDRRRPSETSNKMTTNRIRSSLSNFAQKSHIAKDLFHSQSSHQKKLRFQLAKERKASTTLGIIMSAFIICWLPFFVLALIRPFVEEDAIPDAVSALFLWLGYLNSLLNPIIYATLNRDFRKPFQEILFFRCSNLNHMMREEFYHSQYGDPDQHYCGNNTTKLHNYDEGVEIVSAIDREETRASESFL

Ms5HT2 receptor = target: T3, Ms5HT2 receptor (Manduca sexta, UniProt S4USL2); test: as above
T3 construct: gene 5HT2
T3 sequence (S4USL2 1-635): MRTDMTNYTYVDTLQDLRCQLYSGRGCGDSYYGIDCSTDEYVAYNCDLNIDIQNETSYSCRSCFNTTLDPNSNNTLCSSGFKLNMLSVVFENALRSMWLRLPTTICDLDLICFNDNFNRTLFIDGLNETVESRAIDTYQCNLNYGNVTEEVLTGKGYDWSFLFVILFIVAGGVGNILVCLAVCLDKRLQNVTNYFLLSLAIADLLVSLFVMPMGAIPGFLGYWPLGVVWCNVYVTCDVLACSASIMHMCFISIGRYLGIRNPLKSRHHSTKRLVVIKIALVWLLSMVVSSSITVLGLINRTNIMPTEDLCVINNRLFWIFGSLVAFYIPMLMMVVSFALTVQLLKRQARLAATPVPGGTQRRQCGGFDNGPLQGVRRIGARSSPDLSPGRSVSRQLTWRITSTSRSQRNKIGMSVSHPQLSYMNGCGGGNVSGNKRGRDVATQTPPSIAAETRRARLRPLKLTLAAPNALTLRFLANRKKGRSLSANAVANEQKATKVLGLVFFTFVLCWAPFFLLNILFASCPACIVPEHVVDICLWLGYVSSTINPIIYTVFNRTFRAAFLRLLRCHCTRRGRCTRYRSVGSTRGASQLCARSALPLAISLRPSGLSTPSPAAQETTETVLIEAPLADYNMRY

Ms5HT1B receptor [3] = target: T1, Ms5HT1B receptor; test: two-electrode voltage clamp, Xenopus oocytes, endogenous chloride current; conditions: for activity at 3 µM: read-out: 5HT1B receptor
Text: two-electrode voltage clamp, Xenopus oocytes, endogenous chloride current on Ms5HT1B receptor

Ms5HT1A receptor = target: T4, Ms5HT1A receptor (Manduca sexta, UniProt Q0GMY2); test: two-electrode voltage clamp, Xenopus oocytes, CFTR current; conditions: read-out: 5HT1A receptor
T4 construct: gene 5HT1A; about 51 kDa
T4 sequence (Q0GMY2 1-463): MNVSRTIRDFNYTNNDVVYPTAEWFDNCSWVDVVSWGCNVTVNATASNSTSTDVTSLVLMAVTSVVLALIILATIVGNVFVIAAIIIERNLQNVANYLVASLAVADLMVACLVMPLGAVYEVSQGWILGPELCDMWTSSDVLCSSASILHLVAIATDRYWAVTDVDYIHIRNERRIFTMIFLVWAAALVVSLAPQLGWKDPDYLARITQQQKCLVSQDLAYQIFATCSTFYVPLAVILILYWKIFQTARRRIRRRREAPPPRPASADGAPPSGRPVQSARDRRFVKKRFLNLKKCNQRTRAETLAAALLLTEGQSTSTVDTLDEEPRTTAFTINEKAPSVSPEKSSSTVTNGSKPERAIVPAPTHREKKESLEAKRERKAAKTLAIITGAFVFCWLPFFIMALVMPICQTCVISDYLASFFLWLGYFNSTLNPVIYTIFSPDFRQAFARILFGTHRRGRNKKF
Text: two-electrode voltage clamp, Xenopus oocytes, CFTR current on Ms5HT1A receptor

Ms5HT7 receptor [4] = target: T2, Ms5HT7 receptor; test: two-electrode voltage clamp, Xenopus oocytes, endogenous chloride current; conditions: 3 µM; partial agonist; relative to 1 µM 5-HT
Text: two-electrode voltage clamp, Xenopus oocytes, endogenous chloride current on Ms5HT7 receptor

## NCCc1c[nH]c2ccc(O)cc12 [serotonin]
Ms5HT1B receptor [1]
  EC50: 57 nM
Ms5HT7 receptor [2]
  EC50: 10.5 nM
Ms5HT2 receptor
  EC50: 25.4 nM

## COc1ccccc1N1CCN(CCN(C(=O)C2CCCCC2)c2ccccn2)CC1 [WAY100635]
Ms5HT1B receptor [3]
  activity at 3 µM: 38.2 ± 3.3%
Ms5HT1A receptor
  activity at 3 µM: 76.8 ± 15.8%

## CC[C@@H](CO)NC(=O)[C@@H]1C=C2c3cccc4c3c(cn4C)C[C@H]2N(C)C1 [methysergide]
Ms5HT7 receptor [4]
  Ms5HT7: 49.5 ± 12%

## COc1ccc2[nH]cc(CCN)c2c1 [5-methoxytryptamine]
Ms5HT1B receptor [3]; agonist, relative to 1 µM 5-HT
  5HT1B receptor: 7.2 ± 1.4%

## CSc1ccc2c(c1)C(N1CCN(C)CC1)Cc1ccccc1S2 (centres unmarked) [methiothepin]
Ms5HT1B receptor [3]
  activity at 3 µM: 36.4 ± 12.6%
